Test results published in BigSolDB 2.1.

CC1(C)COP(=O)(O)OC1c1ccccc1Cl (centres undefined)
solubility (mole fraction)
Conditions | in acetic acid | in ethanol | in isopropanol | in methanol | in tert-butanol | in water
278.15 K | – | 0.00426 | 0.0114 | 0.00445 | – | 0.000124
283.15 K | – | 0.00473 | 0.0135 | 0.00519 | – | 0.000123
288.15 K | – | 0.00536 | 0.016 | 0.00572 | – | 0.000136
293.15 K | 0.00131 | 0.00614 | 0.0176 | 0.00644 | – | 0.000157
298.15 K | 0.00156 | 0.00685 | 0.0207 | 0.00713 | – | 0.000162
303.15 K | 0.00186 | 0.00783 | 0.0251 | 0.00809 | 0.0228 | 0.000164
308.15 K | 0.00221 | 0.00884 | 0.029 | 0.00892 | 0.0281 | 0.000166
313.15 K | 0.0025 | 0.00995 | 0.0342 | 0.0105 | 0.0313 | 0.000168
318.15 K | 0.00277 | 0.0121 | 0.0391 | 0.0125 | 0.0359 | 0.00017
323.15 K | 0.00341 | 0.0135 | 0.0448 | 0.0145 | 0.0398 | –
328.15 K | 0.0039 | – | – | – | 0.0469 | –
333.15 K | 0.00449 | – | – | – | 0.051 | –
338.15 K | 0.00523 | – | – | – | 0.0574 | –
343.15 K | – | – | – | – | 0.0629 | –
348.15 K | – | – | – | – | 0.0691 | –
